The text below walks through data of US20040009485A1, “Cellular arrays for the identification of altered gene expression” (priority 2002, published 2004).

Where two headings read alike, the source gives them in different places.

Test [1] deals with OxyR regulon gene fusions (ahpC-luxCDABE). As to conditions: for H2O2 response ratio: ahpC fusion, 0.002% hydrogen peroxide, 30 minutes, LB. The procedure: (§1) To test the stress responses, one or two single colonies of each selected strain were used to inoculate 5.0 ml of LB medium containing 150 μg/ml of ampicillin. These cultures were grown overnight at 37° C. then diluted by adding 50 μl or 100 μl of the overnight culture into 10.0 ml of fresh LB medium (without ampicillin) and grown with agitation at 37° C. until the culture was in exponential phase with readings on a Klett-Summerson colorimeter containing the red filter of between 10 and 40. These actively growing cultures were immediately used to initiate a stress response experiment by adding 50 μl of cultures to 50 μl of LB medium containing various concentrations of chemical in the wells a 96 well luminometer plate. This division of the actively growing culture at the time of chemical addition ensured identical populations were present when the stress was imposed. Light production was measured in a Dynex ML3000 luminometer at 37° C. The dimensionless units of light production, relative light units (RLU), are obtained by comparison with the light reading from an internal light-emitting diode. The cycle mode of the ML3000 luminometer, similar to previous descriptions (Van Dyk et al., Appl. Environ. Microbiol. 60:1414-120) was used.
To test if these strains would report on activation of the OxyR-controlled oxidative stress response, each was treated with hydrogen peroxide at 0.016, 0.008, 0.004, 0.002, 0.001, 0.0005, 0.00025%.

In test [2] the test system is ahpC-luxCDABE fusions in E. coli host strain DPD2228 (pcnB80). As to conditions: for H2O2 response ratio in pcnB- host: 0.002% hydrogen peroxide, 30 minutes, LB. The procedure:
as §1

As to `OO` [H2O2, hydrogen peroxide], the H2O2 response ratio turned out to be 1.3 in test [1] (DPD2283 (lux-a.pk051.d5)), 1.6 in test [1] (DPD2284 (lux-a.pk051.e3)) and 1.2 in test [1] (DPD2285 (lux-a.pk03.d6)). Also, the induction of bioluminescence result is “minimally induced” in test [1] (three ahpC-luxCDABE strains, 0.016-0.00025% hydrogen peroxide) and “dramatically induced increased bioluminescence” in test [2] (both ahpC-luxCDABE strains in pcnB- host, each of seven conc 0.004-0.00006%). Further, the entries for the “H2O2 response ratio in pcnB- host” value in test [2] (plasmid of DPD2283 (lux-a.pk051.d5) in DPD2228) and in test [2] (plasmid of DPD2284 (lux-a.pk051.e3) in DPD2228) were 16.5 and 15.3, respectively.
